Assay results: US20030087947A1, “Novel photosensitizers of 9-hydroxypheophorbide-a derivatives used for photodynamic therapy” (priority 2000, published 2003)

Assays:
[1] = system: cancer cell line; assay: FACS analysis of cell cycle; type: cell-based; conditions: FACS analysis after treatment
[2] = system: cyclin B1; assay: Western blot analysis of cell cycle regulation during photodynamic therapy; type: cell-based; conditions: 75˜0.0185 μg/ml, 20 joule total light dose
Protocol: FIG. 1 is a photograph showing cell cycle regulation after treating 9-hydroxypheophorbide-a of formula (I) to the cancer cell line.
The change of cell cycle is a key element for evaluating cancer treatment. In most anti-cancer agents, the growth of cancer cells is suppressed by regulating the expression of cell cycle regulation gene. In this example, the change of cell cycle was measured using 9-HPbD-a during the photodynamic therapy. Using various cencentrations of photosensitizer (75˜0.0185 μg/ml) under 20 joule in total light dose, Western blot analysis was carried out to detect the change of cell cycle in accordance with change of regulation activity of cell cycle regulation gene.

[3] = system: SNU-1041 implanted tumor; assay: Photodynamic therapy using 9-HPbD-a (6 groups, tumor volume and RTG); type: in vivo, nude mice BALB/C/nu/nu
Protocol: The experimental groups were divided into 6 groups when the volume of implanted tumor became about 100˜600 mm^3. Following treatment was performed and the change of tumor was observed.
With only 0.1˜0.15 ml of administration of 9-HPbD-a and liposome conjugate into the tumor, the change of tumor was observed without irradiation.
With only 0.1˜0.15 ml of administration of Photogem into the tumor, the change of tumor was observed without irradiation.
0.1˜0.15 ml of Photogem was administered into the tumor.
0.1˜0.15 ml of 9-HPbD-a and liposome conjugate was administered into the tumor.
The photodynamic therapy was initiated after 2 weeks from implantation of cancer cell line, when the volume of tumor became about 100˜600 mm^3 (FIG. 6).
The measurements of tumor volume were carried out at the time of just before administration of test material; just after administration of 9-HPbD-a; 1 week after administration; 2 weeks after administration; 3 weeks after administration; and 4 weeks after administration. The anti-cancer effect was evaluated by the volume of tumor. The calculation of volume was carried out by using following equation.
(V=volume, A=long axis, B=short axis, C=height)
The evaluation of anti-cancer effect was decided after 4 weeks observation of tumor volume. […] FIG. 7 is a photograph showing that the tumor is treated by administration of 9-HPbD-a with 660 nm diode laser irradiation.

[4] = system: SNU-1041 implanted tumor; assay: Therapeutic effect at the implanted tumor (3 groups, bare fiber tip laser); type: in vivo, nude mice BALB/C/nu/nu; conditions: among 10 cases; intratumoral injection 0.1˜0.2 ml, 660 nm diode laser after 1˜4 hours
Protocol: As experimental animals, 6 weeks aged male nude mice BALB/C/nu/nu were employed, supplying sterilized water and sterilized feed. These animals were bred in filter-top cage under proper temperature and moisture. To implant cultured cancer cell lines into nude mouse, 0.1 ml of SNU-1041 cell line suspension (10^7 cells/0.1 ml) was injected subcutaneously. After injection, the tumor occurred and the volume of tumor became increased after more than 8 weeks observation.
Plain melanoma cell line SNU-1041 was implanted into nude mouse. After the lapse of 8 weeks, it was observed that the tumor became spread in all body. The photodynamic therapy was performed only after the tumor volume became 100˜600 mm^3.
The experimental groups were divided into 3 groups for photodynamic therapy. 660 nm diode laser was inserted and irradiated using bare fiber tip. By monitoring the temperature outside of the tumor, the therapeutic effect caused by hyperthermia was removed. The optimal irradiation strength and time were measured.
The photodynamic therapy was performed when the volume of implanted tumor became about 100˜600 mm^3. The experimental groups were divided into 3 groups.
0.1˜0.2 ml of 9-HPbD-a (0.75 mg/ml) was injected into tumor using 30G syringe. After 1˜4 hours, 660 nm diode laser was irradiated using […] fiber optic tip. […]

[5] = system: lung cancer A549 cell line; assay: In-vitro photodynamic therapy efficacy (cell death after irradiation); type: cell-based
Protocol: The cell line added with “Photogem” was treated and irradiated by red light (570˜650 nm, 0.35 mW/cm^2, 315 J/m^2) from fluorescent lamp and the test sample was treated and irradiated by same red light and laser (660 nm, 0.35 mW/cm^2, 315 J/m^2). After irradiation treatment, the cell line was cultured by adding new medium and 10% of fetal calf serum at 37° C. The cytotoxicity was measured by clonogenic assay after 8 days.
The dose-response curve was prepared after following treatment; i) treating each 25 µg/ml of Photogem, 10-hydroxypheophytin-a and 9-hydroxypheophorbide-a (“9-HPbD-a”) to each cell line; ii) laying them for 2 hours; and iii) treating and irradiating the 660 nm light (315 J/m^2). To the Photogem sample, the light (630±10 nm) was used by 1 KW Xenon lamp (Model A 5000; Photon Technology International Inc.; Power density 75 mW/cm^2) equipped with 5 mm diameter of liquid light guide (2000A, Luminex, Munich, Germany).
(§1) In order to minimize the side light reaction by natural light and lamp, the cell distribution and medium exchange were carried out in green light (500 nm), where the experimental samples were not reacted. After 75 μg/ml of reagent treatment on each 10 dishes at the dark culture room, the experimental samples were cultured for 48 hours. Then, the cell death rate was measured. The data was calculated as a mean value after 5 times experiments. […] Further, the cytotoxicity of 9-HPbD-a could be neglectable.
Further, in a small amount (0.75 μg/ml), high cell death effect was detected. Using another synthesized compound of 9-HPbD-a in the other batch, the experiment was performed according to same protocol again. We detected the same result through the repeated experiments.
With a very small amount 0.0185 μg/ml of administration, the cell death treated with 9-HPbD-a occurred according to the increase of total light dose.

[6] = system: lung cancer A549 cell line; assay: Cytotoxicity of photosensitizer without irradiation (dark culture, cell death rate); type: cell-based; conditions: 75 μg/ml, dark culture room, 48 hours, no irradiation, mean of 5 experiments
Protocol: as §1

[7] = when used in more than a certain amount; cited from earlier work
[8] = decomposing slowly in the room temperature; cited from earlier work
[9] = after 4 weeks from treatment, administration into tumor with 660 nm diode laser irradiation
[10] = 0.0185 μg/ml, total light dose 100 joule
[11] = 0.0375 μg/ml, total light dose 100 joule
[12] = 0.075 μg/ml, total light dose 100 joule
[13] = 0.75 μg/ml, total light dose 20 joule, 665 nm monochromatic light
[14] = 0.75 μg/ml, total light dose 100 joule
[15] = 7.5 μg/ml, total light dose 20 joule, 665 nm monochromatic light
[16] = 75 μg/ml, total light dose 20 joule, 665 nm monochromatic light

Compound | Cell cycle effect [1] | Amount of cyclin B1 [2] | Relative tumor growth (RTG) [3, 9] | Volume of tumor [3, 9] | Change of tumor volume ([3]; photosensitizer into the tumor only, without irradiation (Group 3 and 4)) | Cases showing complete elimination of tumor [4] | Cases showing partial elimination of tumor [4] | Efficacy (cell death) [5, 10] | Efficacy (cell death) [5, 11] | Efficacy (cell death) [5, 12] | Efficacy (cell death) [5, 13] | Efficacy (cell death) [5, 14] | Efficacy (cell death) [5, 15] | Efficacy (cell death) [5, 16] | Concentration, relative to known photosensitizer concentration, showing considerable cell death effect ([5]; A549, total light dose 20 joule) | Cytotoxicity (cell death rate) [6] | Toxicity [7] | Efficacy (cell death) ([5]; 7.5 μg/ml, total light dose 100 joule) | Stability [8]
C=Cc1c(C)c2cc3nc(c4c5[nH]c(cc6nc(cc1[nH]2)C(C)=C6CC)c(C)c5C(O)[C@@H]4C(=O)OC)[C@@H](CCC(=O)O)[C@@H]3C (stereo partly drawn) [9-HPbD-a, 9-hydroxypheophorbide-a] | cell cycle arrest occurred in G2/M cell cycle | rapidly declined | 3.5 | 646 mm^3 | no observation of decline of tumor volume | 3 cases | 7 cases | 10% | 25% | 100% | 10˜20% | 100% | 100% | 100% | 1/100 | 10.05% | – | – | –
C=Cc1c(C)c2cc3nc(c4c5[nH]c(cc6nc(cc1[nH]2)C(C)=C6CC)c(C)c5C(=O)C4(O)C(=O)OC)C(CCC(=O)OCC=C(C)CCCC(C)CCCC(C)CCCC(C)C)C3C (stereo not drawn) [10-hydroxypheophytin-a, reference compound] | – | – | – | – | – | – | – | 0% | 0% | 0% | 0% | 5.85% | 5˜10% | <70% | – | 3.94% | fatal toxicity | 100% | –
C=Cc1c(C)c2cc3nc(c4c5[nH]c(cc6nc(cc1[nH]2)C(C)=C6CC)c(C)c5C(=O)[C@@H]4C(=O)OC)[C@@H](CCC(=O)O)[C@@H]3C [pheophorbide-a] | – | – | – | – | – | – | – | – | – | – | – | – | – | – | – | – | – | – | low stability
